Where two headings read alike, the source gives them in different places.
Tests used:
[1] = biological target: recombinant human Mcl-1 (residues 171-327) / Bim interaction (Homo sapiens (Human), UniProt Q07820); assay: biochemical; type: binding; conditions: read-out: Mcl-1 HTRF IC50
[2] = system: human multiple myeloma cell line, OPM-2; assay: Cell viability assay (OPM-2 10 FBS), CellTiter-Glo; type: cell-based
Summary of the method: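 IC50 values come from 4-parameter logistic fits of luminescence signals reflecting cell viability. Treatment lasted 16 h at 37 °C in complete medium with 10% FBS, starting from 3000 cells/well.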

[3] = TR-FRET, Mcl-1(171-327) / biotin-Bim (51-76)
[4] = Homo sapiens, OPM-2, 16 h, read-out: OPM-2 10% FBS IC50 IP, OPM-2 cells, 10% FBS, 16 h, CellTiter-Glo
[5] = 0.1 nM Mcl-1(171-327), 0.05 nM biotin-Bim (51-76)
[6] = Homo sapiens, OPM-2, 16 h, read-out: OPM-2 10% FBS IC50 IP, OPM-2 cells, 10% FBS, 16 h incubation
[7] = read-out: OPM-2 10% FBS IC50 IP, OPM-2 cells, 10% FBS, 16 h, CellTiter-Glo

Sequence of recombinant human Mcl-1 (residues 171-327) / Bim interaction (Q07820 171-327): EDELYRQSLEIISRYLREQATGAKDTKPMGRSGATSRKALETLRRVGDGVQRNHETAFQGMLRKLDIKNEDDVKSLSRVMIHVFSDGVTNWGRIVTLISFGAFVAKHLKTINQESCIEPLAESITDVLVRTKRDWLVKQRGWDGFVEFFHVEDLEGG

SMILES | IC50 [1, 3] | IC50 [2, 4] | further results
C[C@@H]1[C@@H](C)C/C=C/[C@](O)(C(F)(F)F)[C@@H]2CC[C@H]2CN2C[C@@]3(CCCc4cc(Cl)ccc43)COc3ccc(cc32)C(=O)NS1(=O)=O [Example 100046, (1S,3′R,6′R,7′R,8′E,11′S,12′R)-6-chloro-7′-hydroxy-11′,12′-dimethyl-7′-(trifluoromethyl)-3,4-dihydro-2H,15′H-spiro[naphthalene-1,22′-[20]oxa[13]thia[1,14]diazatetracyclo [14.7.2.0~3,6~.0~19,24~]pentacosa[8,16,18,24]tetraen]-15′-one 13′,13′-dioxide] | 3.76 nM | 976 nM | –
C[C@@H]1[C@@H](C)C/C=C/[C@](O)(c2c[nH]nn2)[C@@H]2CC[C@H]2CN2C[C@@]3(CCCc4cc(Cl)ccc43)COc3ccc(cc32)C(=O)NS1(=O)=O [Example 100239, (1S,3′R,6′R,7′R,8′E,11′S,12′R)-6-chloro-7′-hydroxy-11′,12′-dimethyl-7′-(1H-1,2,3-triazol-4-yl)-3,4-dihydro-2H,15′H-spiro[naphthalene-1,22′-[20]oxa[13]thia[1,14]diazatetracyclo [14.7.2.0~3,6~.0~19,24~]pentacosa[8,16,18,24]tetraen]-15′-one 13′,13′-dioxide] | 0.333 nM | 3740 nM | –
CO[C@]1(C)/C=C/C[C@H](C)[C@@H](C)S(=O)(=O)NC(=O)c2ccc3c(c2)N(C[C@@H]2CC[C@H]21)C[C@@]1(CCCc2cc(Cl)ccc21)CO3 [Example 100215, (1S,3′R,6′R,7′R,8′E,11′S,12′R)-6-chloro-7′-methoxy-7′,11′,12′-trimethyl-3,4-dihydro-2H,15′H-spiro[naphthalene-1,22′-[20]oxa[13]thia[1,14]diazatetracyclo [14.7.2.0~3,6~.0~19,24~]pentacosa[8,16,18,24]tetraen]-15′-one 13′,13′-dioxide] | – | 1250 nM | IC50 [1]: 0.595 nM
COCCCN1CCN(C[C@]2(OC)/C=C/C[C@H](C)[C@@H](C)S(=O)(=O)NC(=O)c3ccc4c(c3)N(C[C@@H]3CC[C@H]32)C[C@@]2(CCCc3cc(Cl)ccc32)CO4)CC1 [Example 302, (1S,3′R,6′R,7′S,8′E,11′S,12′R)-6-chloro-7′-methoxy-7′-((4-(3-methoxypropyl)-1-piperazinyl)methyl)-11′,12′-dimethyl-3,4-dihydro-2H,15′H-spiro[naphthalene-1,22′-[20]oxa[13]thia[1,14]diazatetracyclo [14.7.2.0~3,6~.0~19,24~]pentacosa[8,16,18,24]tetraen]-15′-one 13′,13′-dioxide] | – | – | IC50 [1, 5]: 0.107 nM; IC50 [2, 6]: 84 nM
CO[C@@]1(CN2CCN(C(C)(C)C)CC2)/C=C/C[C@H](C)[C@@H](C)S(=O)(=O)NC(=O)c2ccc3c(c2)N(C[C@@H]2CC[C@H]21)C[C@@]1(CCCc2cc(Cl)ccc21)CO3 [Example 335, (1S,3′R,6′R,7′S,8′E,11′S,12′R)-7′-((4-tert-butyl-1-piperazinyl)methyl)-6-chloro-7′-methoxy-11′,12′-dimethyl-3,4-dihydro-2H,15′H-spiro[naphthalene-1,22′-[20]oxa[13]thia[1,14]diazatetracyclo [14.7.2.0~3,6~.0~19,24~]pentacosa[8,16,18,24]tetraen]-15′-one 13′,13′-dioxide] | – | – | IC50 [1, 5]: 0.148 nM; IC50 [2, 6]: 133 nM
C[C@@H]1[C@@H](C)C/C=C/[C@@](O)(Cc2ccccn2)[C@@H]2CC[C@H]2CN2C[C@@]3(CCCc4cc(Cl)ccc43)COc3ccc(cc32)C(=O)NS1(=O)=O [Example 100242, (1S,3′R,6′R,7′S,8′E,11′S,12′R)-6-chloro-7′-hydroxy-11′,12′-dimethyl-7′-(2-pyridinylmethyl)-3,4-dihydro-2H,15′H-spiro[naphthalene-1,22′-[20]oxa[13]thia[1,14]diazatetracyclo [14.7.2.0~3,6~.0~19,24~]pentacosa[8,16,18,24]tetraen]-15′-one 13′,13′-dioxide] | 2.15 nM | – | IC50 [2, 7]: 1450 nM
CO[C@]1(CCN(C)C)CCC[C@H](C)[C@@H](C)S(=O)(=O)NC(=O)c2ccc3c(c2)N(C[C@@H]2CC[C@H]21)C[C@@]1(CCCc2cc(Cl)ccc21)CO3 [Example 100472, (1S,3′R,6′R,7′S,11′S,12′R)-6-chloro-7′-(2-(dimethylamino)ethyl)-7′-methoxy-11′,12′-dimethyl-3,4-dihydro-2H,15′H-spiro[naphthalene-1,22′-[20]oxa[13]thia[1,14]diazatetracyclo [14.7.2.0~3,6~.0~19,24~]pentacosa[16,18,24]trien]-15′-one 13′,13′-dioxide] | 0.651 nM | 357 nM | –
C[C@@H]1[C@@H](C)C/C=C/C(O)(Cc2nccn2C)[C@@H]2CC[C@H]2CN2C[C@@]3(CCCc4cc(Cl)ccc43)COc3ccc(cc32)C(=O)NS1(=O)=O (stereo in doubt) [Example 100523, (1S,3′R,6′R,7′S,8′E,11′S,12′R)-6-chloro-7′-hydroxy-11′,12′-dimethyl-7′-((1-methyl-1H-imidazol-2-yl)methyl)-3,4-dihydro-2H,15′H-spiro[naphthalene-1,22′-[20]oxa[13]thia[1,14]diazatetracyclo [14.7.2.0~3,6~.0~19,24~]pentacosa[8,16,18,24]tetraen]-15′-one 13′,13′-dioxide] | 0.812 nM | 622 nM | –
CC#C[C@]1(O)/C=C/C[C@H](C)[C@@H](C)S(=O)(=O)NC(=O)c2ccc3c(c2)N(C[C@@H]2CC[C@H]21)C[C@@]1(CCCc2cc(Cl)ccc21)CO3 [Example 100499, (1S,3′R,6′R,7′S,8′E,11′S,12′R)-6-chloro-7′-hydroxy-11′,12′-dimethyl-7′-(1-propyn-1-yl)-3,4-dihydro-2H,15′H-spiro[naphthalene-1,22′-[20]oxa[13]thia[1,14]diazatetracyclo [14.7.2.0~3,6~.0~19,24~]pentacosa[8,16,18,24]tetraen]-15′-one 13′,13′-dioxide] | – | 1120 nM | IC50 [1]: 0.509 nM
C[C@@H]1[C@@H](C)CCC[C@](O)(CC(=S)N(C)C)[C@@H]2CC[C@H]2CN2C[C@@]3(CCCc4cc(Cl)ccc43)COc3ccc(cc32)C(=O)NS1(=O)=O (single isomer, unassigned) [Example 100173] | 0.539 nM | – | IC50 [2, 7]: 379 nM
CO[C@@]1(CC=C(C)C)/C=C/C[C@H](C)[C@@H](C)S(=O)(=O)NC(=O)c2ccc3c(c2)N(C[C@@H]2CC[C@H]21)C[C@@]1(CCCc2cc(Cl)ccc21)CO3 [Example 100447, (1S,3′R,6′R,7′S,8′E,11′S,12′R)-6-chloro-7′-methoxy-11′,12′-dimethyl-7′-(3-methyl-2-buten-1-yl)-3,4-dihydro-2H,15′H-spiro[naphthalene-1,22′-[20]oxa[13]thia[1,14]diazatetracyclo [14.7.2.0~3,6~.0~19,24~]pentacosa[8,16,18,24]tetraen]-15′-one 13′,13′-dioxide] | 0.05 nM | 184 nM | –
Cc1ccc([C@]2(O)/C=C/C[C@H](C)[C@@H](C)S(=O)(=O)NC(=O)c3ccc4c(c3)N(C[C@@H]3CC[C@H]32)C[C@@]2(CCCc3cc(Cl)ccc32)CO4)nc1 (single isomer, unassigned) [Example 100439] | 0.619 nM | 2640 nM | –
CCO[C@@]1(CN2CCN3CCCC[C@@H]3C2)/C=C/CC[C@@H](CC)S(=O)(=O)NC(=O)c2ccc3c(c2)N(C[C@@H]2CC[C@H]21)C[C@@]1(CCCc2cc(Cl)ccc21)CO3 [Example 43, (1S,3′R,6′R,7′S,8′E,12′R)-6-chloro-7′-ethoxy-12′-ethyl-7′-((9aR)-octahydro-2H-pyrido[1,2-a]pyrazin-2-ylmethyl)-3,4-dihydro-2H,15′H-spiro[naphthalene-1,22′-[20]oxa[13]thia[1,14]diazatetracyclo [14.7.2.0~3,6~.0~19,24~]pentacosa[8,16,18,24]tetraen]-15′-one 13′,13′-dioxide] | – | – | IC50 [1, 5]: 1.64 nM; IC50 [2, 6]: 888 nM
COCC[C@@H]1[C@@H](C)C/C=C/[C@](CN2CCN(C(C)C)CC2)(OC)[C@@H]2CC[C@H]2CN2C[C@@]3(CCCc4cc(Cl)ccc43)COc3ccc(nc32)C(=O)NS1(=O)=O [Example 24, (1S,3′R,6′R,7′S,8′E,11′S,12′R)-6-chloro-7′-methoxy-12′-(2-methoxyethyl)-11′-methyl-7′-((4-(1-methylethyl)-1-piperazinyl)methyl)-3,4-dihydro-2H,15′H-spiro[naphthalene-1,22′-[20]oxa[13]thia[1,14,25]triazatetracyclo [14.7.2.0~3,6~.0~19,24~]pentacosa[8,16,18,24]tetraen]-15′-one 13′,13′-dioxide] | – | – | IC50 [1, 5]: 0.086 nM; IC50 [2, 6]: 35 nM
C[C@@H]1[C@@H](C)CCC[C@](O)([C@@H](C)C(=O)N(C)C)[C@@H]2CC[C@H]2CN2C[C@@]3(CCCc4cc(Cl)ccc43)COc3ccc(cc32)C(=O)NS1(=O)=O (single isomer, unassigned) [Example 100118] | 4.44 nM | – | IC50 [2, 7]: 3950 nM
CO[C@@]1(CC(=O)N(C)C2CCC2)/C=C/C[C@H](C)[C@@H](C)S(=O)(=O)NC(=O)c2ccc3c(c2)N(C[C@@H]2CC[C@H]21)C[C@@]1(CCCc2cc(Cl)ccc21)CO3 [Example 100450, 2-((1S,3′R,6′R,7′S,8′E,11′S,12′R)-6-chloro-7′-methoxy-11′,12′-dimethyl-13′,13′-dioxido-15′-oxo-3,4-dihydro-2H-spiro[naphthalene-1,22′-[20]oxa[13]thia[1,14]diazatetracyclo [14.7.2.0~3,6~.0~19,24~]pentacosa[8,16,18,24]tetraen]-7′-yl)-N-cyclobutyl-N-methylacetamide] | 0.336 nM | 1910 nM | –
